Results on three molecules are retold here after patent publication US4483989A, “Synthesis of pyrido[4,3-b]carbazole derivatives” (priority 1973, dated 1984).

Each structure is given as a SMILES string. “Also recorded” adds a separate entry of the source. Read-outs that look alike come from different tables or passages of the source.

The term Kd denotes the free concentration of one partner at which half of the binding sites on the other are occupied at equilibrium, for simple one-to-one binding. High values mean lower affinity, low ones higher affinity.

Series [1] can be described thus: Metabolic studies in mice.
Series [2] relates to mouse L 1210 leukemia. In words: L1210 leukemia in mice: inoculum of 10^5 cells, single dose of compound 24 hours later. As to conditions: for ED (ILS 25%): Mus musculus, L1210, ip, read-out: L 1210 cells: in vivo dose to reach ILS 25%. The series is classed as in vivo. The text has this: The experimental tumor mouse L 1210 leukemia is commonly used to evaluate the effects of all the antitumor compounds now used in human therapeutics,as was described, for example, by C. C. ZUBROD in Proc. Nat. Acad. Sci. USA 69, 1972, pp. 1042-1047. This experimentally formed tumoral system permits very accurate quantitative evaluation of the activity of the compound tested and also, consequently, an objective comparison of the respective activities of various compounds, for example, according to the methods described by H. E. SKIPPER, F. M. SCHABEL Jr. and W. S. WILCOX in Cancer Chemiother. Rep. 1964, pp. 1-111 and 45, 1965, pp. 5-28.
(§1) The mice were randomized in each experimental series. A first routine experiment enable the death rate by toxicity to be determined and thus established the sublethal doses.
According to the convention in force in this field, the animals which survived longer than 45 days after inoculation of tumoral cells were considered to be cured.
(§2) To evaluate the therapeutic activity of the compounds of the invention, doses of said compound were expressed basing them on the 30 days sublethal dose which was fixed at 1.
A--A tumoral inoculum of 10^5 L1210 leukemia cells was administered by the intraperitoneal way to twenty 2 to 3 months old DBA/2 strain female mice. 24 hours later, half of said mice received a single intraperitoneal injection of a variable dose of the compound to be tested and the same volume of solvent was administered to the other half of the mice by the same way; this latter half of the group of mice was therefore used as the control series. The mice were randomized in each experimental series.
Animals surviving for longer than 45 days were considered to be cured.

In another series the target is DNA. Nature of the series: DNA affinity. It counts as binding.
The conditions of series [3]: for LDo (highest non lethal dose / sublethal dose) for mice: route not given.
Description: as §1, §2

The nature of series [4]: Autoradiography with 14C-labeled molecules (biodisponibility). The series is classed as in vivo. The source says: To understand the increase of the antitumor efficiency of the quaternarized compounds, several parameters of action of 9--OH--E and its methyl derivative have been comparatively established (see table III). Both compounds have about the same affinity for DNA. On a weight basis, the methyl compound is about 10 times more toxic in mice but also 10 times more efficient on leukemic mice (ILS). […] Therefore, there is no quantitative parallel between the in vivo and in vitro action of these drugs. The N-quaternization markedly changes the biodisponibility of the drugs as shown by autoradiography with ^14 C-labeled molecules. […] Several ellipticine derivatives are mutagenic on Ames Salmonella test; however, the quaternized derivatives lose this property. The microsomes, which are able to metabolize some ellipticines, increase the mutagenic ability of these drugs in vitro. […] Due to the curved shape of their molecules, their relative hydrophobicity, and the presence of a heterocyclic nitrogen, the ellipticines are good substrates for the cytochrome P450 system, provided that the 2-N remains uncharged.

The next series deals with BP 8 tumors. To be noted: mouse, in vivo; cited from earlier work.
In another series the test system is Hodgkin's disease. As to conditions: in vivo; cited from earlier work.
For series [5] the following is noted: cited from earlier work.
Series [6] deals with mouse L 1210 leukemia. To be noted: in vivo; cited from earlier work.
In series [7] the test system is acute myeloblastic leukemia. To be noted: in vivo; cited from earlier work.
The test system of series [8] is acute lymphoblastic leukemia. As to conditions: in vivo; cited from earlier work.
The subject of the next series is mouse P 388 leukemia. In words: P 388 leukemia in mice, same procedure, inoculum of 10^5 cells. It counts as in vivo. To be noted: same doses, compared with L1210 leukemia. The source says:
The effect the compounds of the invention have on mouse L 1210 or P 388 leukemias was used to test the antitumor activity of said compounds.
B-The same procedure was used as in A, but after a tumoral inoculum of 10^5 P 388 leukemia cells had been injected to the mice. The therapeutic activity of the 9-hydroxy 2-methyl-ellipticinium was similar on this mouse P 388 leukemia to that obtained on mouse L1210 leukemia, using the same doses.

Series [9] concerns advanced breast, thyroid, or colon cancers. In words: Phase I trial, weekly intravenous dose, refractory patients. The series is classed as in vivo, human. As to the method: A phase I trial was done at the Cancer Institute of 14-Caen, France. A weekly dose in the range of 50 to 100 mg per m2 was given intravenously over a 30 minutes period to patients refractory to usual chemotherapeutic or radiotherapeutic treatments (3). […] They were suffering from advanced breast, thyroid, or colon cancers, with bone or lung metastasis in mostcases.

The conditions of series [10]: mouse, in vivo.
For the next series, the system named is L1210 cells. In words: Rate of L1210 cells multiplication in vitro. It counts as cell-based, mouse.

Consider `Cc1c2ccncc2c(C)c2c1[nH]c1ccc(O)cc12` [Example 9-OH--E, 9-hydroxy-ellipticine, reference compound], for which the Metabolism entry in series [1] was “only glucuroconjugated”. For the same molecule, in the series on mouse L 1210 leukemia [2], the ED (ILS 25%) is 10 mg/kg. This molecule showed a Kd on DNA of 435 nM. In addition, the “LDo (highest non lethal dose / sublethal dose) for mice” value in series [3] is recorded as 50 mg/kg. In series [4], the Elimination result was “mostly eliminated through the bile into feces”; the “Organ distribution (autoradiography)” value was “concentrates in several organs, including the lungs and the pancreas”.
Turning to `COc1ccc2[nH]c3c(C)c4ccncc4c(C)c3c2c1` [9-methoxy-ellipticine lactate], the “Oncostatic action in BP 8 tumors” value in the series on BP 8 tumors was “oncostatic action”. Moreover, the “Effectiveness in Hodgkin's disease” value in the series with Hodgkin's disease was “ineffective”. Moreover, the values for the Immunosuppressive action result in series [5] (administered after the antigen) and in series [5] (administered to humans) were “has an immunosuppressive action” and “does not reveal such an activity”, respectively. In the series with mouse L 1210 leukemia [6], the “Oncostatic action in mouse L 1210 leukemia” value was “oncostatic action”. For the same molecule, the “Effectiveness in acute myeloblastic leukemia” value in [7] is given as “effective”. Also, the “Effectiveness in acute lymphoblastic leukemia” value in series [8] was “ineffective”.
Turning to `Cc1c2cc[n+](C)cc2c(C)c2c1[nH]c1ccc(O)cc12` [9-hydroxy 2-methyl ellipticinium acetate, 9-hydroxy-2-methyl-ellipticinium acetate], the “Therapeutic activity on mouse P 388 leukemia” value in the series with mouse P 388 leukemia is “similar”. Further, the “Activity on human tumors” value in series [9] (human, in vivo) is given as “active on some human tumors”. The Toxic side effects entry in series [9] (phase I trial) is “No major toxic side effects”. Also, in [9] (weekly 50 to 100 mg per m2 intravenously over 30 minutes), the “Patients with subjective or objective improvements” value is “Eight of the first 18 patients”. For the same molecule, in the series on mouse L 1210 leukemia [2] (L1210 leukemia), the “Doses smaller than the doses of 9-hydroxy-ellipticine necessary to obtain a comparable result” value is “about 10 times”. Moreover, the ED (ILS 25%) with mouse L 1210 leukemia [2] (mice) stood at 1 mg/kg. In addition, the “Cured mouse surviving more than 45 days” value with mouse L 1210 leukemia [2] (footnote of table IV, I.P., 10^5 L1210 cells) is recorded as 1 out of 20 mice. Moreover, the “Efficiency on leukemic mice (ILS) relative to 9--OH--E, on a weight basis” value with mouse L 1210 leukemia [2] (mouse, in vivo) was “about 10 times”. Moreover, the Metabolism result in series [10] is on record as “excreted with no major modification”. On DNA, this molecule gave a Kd of 769 nM. Moreover, in series [3], the “Toxicity in mice relative to 9--OH--E, on a weight basis” value is on record as “about 10 times” and the “LDo (highest non lethal dose / sublethal dose) for mice” value amounted to 5 mg/kg. The Elimination result in series [4] is reported as “elimination through feces is reduced”. The “Organ distribution (autoradiography)” value in series [4] (listed as methyl derivative) was “devoid of any ability to concentrate in lungs and pancreas; also recorded: capacity to concentrate in the intestinal walls and in the thyroid”. Moreover, in the series on L1210 cells, the “Activity on the rate of growth of L1210 cells in vitro relative to 9--OH--E” value is “four times less active”.
